In patent EP4471048A1, “PEPTIDE INHIBITORS OF INTERLEUKIN-23 RECEPTOR” (Zealand Pharma A/S, priority 2023, dated 2024):

Key:
[1] = target: T1, human IL-23R (Homo sapiens, UniProt Q5VWK5); experiment: biochemical
T1 sequence (Q5VWK5 22-629): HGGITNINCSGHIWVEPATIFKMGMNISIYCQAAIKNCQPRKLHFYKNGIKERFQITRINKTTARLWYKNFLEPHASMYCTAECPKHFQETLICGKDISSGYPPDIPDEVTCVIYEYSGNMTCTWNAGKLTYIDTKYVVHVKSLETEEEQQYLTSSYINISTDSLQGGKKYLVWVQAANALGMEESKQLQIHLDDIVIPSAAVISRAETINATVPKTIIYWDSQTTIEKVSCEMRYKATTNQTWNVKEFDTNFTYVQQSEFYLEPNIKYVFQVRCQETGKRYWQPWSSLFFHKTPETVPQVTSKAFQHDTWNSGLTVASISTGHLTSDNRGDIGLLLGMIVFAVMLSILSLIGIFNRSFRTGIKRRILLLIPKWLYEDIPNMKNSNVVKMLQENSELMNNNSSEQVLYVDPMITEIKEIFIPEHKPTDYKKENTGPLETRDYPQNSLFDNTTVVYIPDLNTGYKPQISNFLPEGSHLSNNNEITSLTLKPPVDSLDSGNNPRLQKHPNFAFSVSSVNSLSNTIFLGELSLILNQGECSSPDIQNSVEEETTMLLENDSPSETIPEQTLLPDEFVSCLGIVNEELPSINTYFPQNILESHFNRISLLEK
How it was run: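 Membranes from HEK293 cells stably expressing Nluc-tagged human IL-23R were incubated 2 h at room temperature with test compound and a fluorophore-labelled tracer. After substrate addition, loss of BRET (TAMRA over luciferase emission) reported tracer displacement. A 4PL fit gave IC50 values.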

[2] = target: IL-23 mediated signalling (Homo sapiens, UniProt Q5VWK5); experiment: Functional inhibition of IL-23 mediated STAT3 signalling (phospho-STAT3 MSD) in DB cells; type: cell-based; conditions: DB cells, hIL-23 at EC80
How it was run: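 DB cells preincubated with inhibitor 15 min at 37 °C, then stimulated 90 min with EC80 human IL-23; lysate phospho-STAT3 measured by MSD electrochemiluminescence. Signal normalized to IL-23-alone and buffer controls; IC50 and maximal % inhibition from 4-parameter logistic fit.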

In the case of `CC(C)C[C@]1(C)NC(=O)[C@H](Cc2ccc3ccccc3c2)NC(=O)[C@H](Cc2ccc(OCCN)cc2)NC(=O)[C@@H]2CCC(=O)N[C@H](CCCCNC(=O)CC[C@@H](C(=O)N[C@@H](CCN)C(=O)N[C@@H](Cc3cccnc3)C(N)=O)NC1=O)C(=O)N[C@@H]([C@@H](C)O)C(=O)N[C@@H](C(C)C)C(=O)N[C@@H](Cc1c[nH]c3ccccc13)C(=O)N[C@@H](CCC(N)=O)C(=O)N2` [Compound 1, [{d}K](1c)(6c)^†TVWQE(6c)[Y(2-aminoethoxy)][2-Nal][2-Me-Leu]E(1c)[Dab][3-(3-Pyridyl)-Ala]-[NH2]], the “% displacement (hIL-23R NIuc)” value [1] is reported as 103%, the IC50 [1] is reported as 0.04 nM and the IC50 ([2]; SAR tables 2-1 to 2-7, read-out: IC50 (pSTAT3)) is reported as 0.23 nM. The Emax ([2]; Table 3-2, maximal inhibitory response, read-out: hIL-23 (pSTAT3) antagonist % inhibition) was 102%.
